Measured values: patent US20160250208A1, “TREATING ORGAN-SPECIFIC T CELL MEDIATED AUTOIMMUNE DISEASES” (UNIVERSITY OF MASSACHUSETTS, priority 2013, published 2016)

Tests used:
Fyn, IR, Lck, Btk = settings: cited from earlier work
Ctla4−/− mice = experiment: Treatment of Ctla4−/− mice with ITK inhibitors (survival, T cell activation, LN size, tissue infiltration); assay type: in vivo, mouse; settings: BMS509744 at 50 mg/kg, 10n at 1 mg/kg and 10 mg/kg, starting at 10 days of age; FIG. 5A
Description: Control mice (n=10) were injected with solvent alone. […] Data are representative of three experiments with 4-10 mice in each group per experiment.

14 other kinases = settings: cited from earlier work
ITK = molecular target: T1, ITK (Homo sapiens, UniProt Q08881); settings: ATP-competitive; cited from earlier work
T1 sequence (Q08881 1-620): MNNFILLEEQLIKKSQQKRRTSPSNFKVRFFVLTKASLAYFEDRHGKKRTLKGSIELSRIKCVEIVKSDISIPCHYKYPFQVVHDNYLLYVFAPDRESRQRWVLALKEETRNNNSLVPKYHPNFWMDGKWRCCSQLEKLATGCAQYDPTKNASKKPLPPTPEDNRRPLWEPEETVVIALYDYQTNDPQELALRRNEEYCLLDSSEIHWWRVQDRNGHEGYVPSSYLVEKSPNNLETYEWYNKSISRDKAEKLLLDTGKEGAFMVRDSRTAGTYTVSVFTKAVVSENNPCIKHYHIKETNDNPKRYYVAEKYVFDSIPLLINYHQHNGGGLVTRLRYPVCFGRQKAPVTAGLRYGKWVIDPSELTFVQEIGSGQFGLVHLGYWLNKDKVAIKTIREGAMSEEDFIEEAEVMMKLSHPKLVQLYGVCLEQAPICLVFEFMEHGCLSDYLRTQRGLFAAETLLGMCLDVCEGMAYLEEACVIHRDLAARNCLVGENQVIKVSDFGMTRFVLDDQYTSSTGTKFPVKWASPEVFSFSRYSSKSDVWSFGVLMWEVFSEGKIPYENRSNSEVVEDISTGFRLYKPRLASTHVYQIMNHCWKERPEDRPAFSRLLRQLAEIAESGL

SVEC4-10 cells = experiment: Trans-endothelial migration assay across SVEC4-10 endothelial cells; assay type: cell-based, mouse; settings: DKO LN cells pre-activated with Ionomycin 2 μg/ml for 2 hours; FIG. 8F

Structure (SMILES)	inhibition of Fyn, IR, Lck, Btk (Fyn, IR, Lck, Btk)	lifespan of Ctla4−/− mice (Ctla4−/− mice)	activity against 14 other kinases (14 other kinases)	inhibition of ITK kinase activity (ITK)	frequency of DKO T cells migrating across the endothelium (SVEC4-10 cells)
COc1cc(C)c(Sc2cnc(NC(=O)c3ccc(CNC(C)C(C)(C)C)cc3)s2)cc1C(=O)N1CCN(C(C)=O)CC1 (centres unmarked) [BMS509744]	only at high concentrations	significantly increased their lifespan	little or no activity	potently inhibits ITK kinase activity	–
C[C@H](CCC(=O)O)C[C@H](C)C[C@H](C)C(=O)/C=C(\O)[C@H](C)C[C@H](C)C/C=C/[C@@H](C)[C@@H](O)[C@@H](C)[C@@H](O)C[C@@H]1CC[C@@](C)([C@H]2CC[C@@](C)([C@@H](C)O)O2)O1 [Ionomycin]	–	–	–	–	increased the frequency of DKO T cells that were able to migrate across the endothelium
